Results from the NIST ThermoML archive (doi:10.1021/je1003065).
Numbers after ± are expanded uncertainties.

Test: mn = molality of the nth substance listed, in mol/kg
Conditions: Liquid, Vibrating tube method

[Br-].[Li+] [lithium bromide] + CCO
Conditions | mass density [kg/m3]
373.16 K, 5125 kPa, m1 = 0.5972 | 762.2 ± 1.5
373.16 K, 9909 kPa, m1 = 1.462 | 822.87 ± 1.6
373.16 K, 29954 kPa, m1 = 0.2335 | 764.93 ± 1.6
373.16 K, 40172 kPa, m1 = 0.5972 | 798.56 ± 1.6
373.16 K, 49979 kPa, m1 = 0.5972 | 807.22 ± 1.7
373.16 K, 79993 kPa, m1 = 1.462 | 881.25 ± 1.8
373.16 K, 89924 kPa, m1 = 1.462 | 887.37 ± 1.9
373.16 K, 99892 kPa, m1 = 2.272 | 936.43 ± 1.9
373.17 K, 1353 kPa, m1 = 2.272 | 860.5 ± 1.7
373.17 K, 20097 kPa, m1 = 1.462 | 833.45 ± 1.7
373.17 K, 29993 kPa, m1 = 1.462 | 842.95 ± 1.7
373.17 K, 49993 kPa, m1 = 1.462 | 860.02 ± 1.8
373.17 K, 50023 kPa, m1 = 0.2335 | 783.79 ± 1.6
373.17 K, 59801 kPa, m1 = 0.5972 | 815.22 ± 1.7
373.17 K, 99791 kPa, m1 = 1.462 | 893.1 ± 1.9
373.18 K, 4985 kPa, m1 = 2.272 | 864.78 ± 1.7
373.18 K, 9782 kPa, m1 = 2.272 | 870.51 ± 1.8
373.19 K, 19637 kPa, m1 = 2.272 | 879.78 ± 1.8
373.19 K, 29927 kPa, m1 = 2.272 | 888.82 ± 1.8
373.19 K, 39864 kPa, m1 = 2.272 | 896.99 ± 1.8
373.19 K, 40176 kPa, m1 = 1.462 | 851.97 ± 1.7
398.11 K, 79836 kPa, m1 = 2.272 | 910.54 ± 1.9
398.12 K, 10085 kPa, m1 = 1.462 | 801.33 ± 1.6
398.12 K, 39724 kPa, m1 = 2.272 | 879.8 ± 1.8
398.12 K, 49958 kPa, m1 = 2.272 | 888.51 ± 1.8
398.12 K, 59977 kPa, m1 = 2.272 | 896.37 ± 1.8
398.12 K, 69928 kPa, m1 = 2.272 | 903.66 ± 1.9
398.13 K, 5252 kPa, m1 = 1.462 | 795.21 ± 1.6
398.13 K, 29993 kPa, m1 = 2.272 | 870.74 ± 1.8
398.13 K, 39727 kPa, m1 = 3.368 | 934.47 ± 1.9
398.14 K, 9704 kPa, m1 = 2.272 | 848.87 ± 1.7
398.14 K, 9986 kPa, m1 = 2.833 | 879.45 ± 1.8
398.14 K, 19987 kPa, m1 = 3.368 | 916.46 ± 1.8
398.14 K, 20117 kPa, m1 = 2.272 | 860.65 ± 1.7
398.14 K, 29928 kPa, m1 = 0.2335 | 744.1 ± 1.5
398.14 K, 29993 kPa, m1 = 3.368 | 926 ± 1.9
398.14 K, 39959 kPa, m1 = 1.462 | 834.18 ± 1.7
398.14 K, 40001 kPa, m1 = 0.5972 | 779.67 ± 1.6
398.14 K, 49956 kPa, m1 = 2.833 | 917.53 ± 1.9
398.14 K, 89925 kPa, m1 = 2.833 | 945.26 ± 1.9
398.14 K, 99863 kPa, m1 = 0.5972 | 827.19 ± 1.9
398.15 K, 1326 kPa, m1 = 2.833 | 868.98 ± 1.7
398.15 K, 1425 kPa, m1 = 0.9499 | 756.04 ± 1.5
398.15 K, 2012 kPa, m1 = 3.368 | 896.84 ± 1.8
398.15 K, 2214 kPa, m1 = 1.462 | 790.21 ± 1.6
398.15 K, 2451 kPa, m1 = 0.2335 | 705.58 ± 1.4
398.15 K, 2804 kPa, m1 = 0.5972 | 733.32 ± 1.5
398.15 K, 5002 kPa, m1 = 2.833 | 873.54 ± 1.8
398.15 K, 5024 kPa, m1 = 0.2335 | 709.8 ± 1.4
398.15 K, 5025 kPa, m1 = 0.9499 | 761.36 ± 1.5
398.15 K, 9911 kPa, m1 = 3.368 | 905.89 ± 1.8
398.15 K, 9986 kPa, m1 = 0.9499 | 768.11 ± 1.6
398.15 K, 10023 kPa, m1 = 0.2335 | 717.61 ± 1.5
398.15 K, 19859 kPa, m1 = 1.462 | 812.89 ± 1.6
398.15 K, 19923 kPa, m1 = 0.9499 | 780.63 ± 1.6
398.15 K, 19925 kPa, m1 = 2.833 | 890.37 ± 1.8
398.15 K, 29784 kPa, m1 = 0.9499 | 791.83 ± 1.6
398.15 K, 29946 kPa, m1 = 1.462 | 823.95 ± 1.7
398.15 K, 29996 kPa, m1 = 0.5972 | 769.06 ± 1.6
398.15 K, 39926 kPa, m1 = 0.9499 | 802.25 ± 1.6
398.15 K, 39941 kPa, m1 = 0.2335 | 754.26 ± 1.6
398.15 K, 40021 kPa, m1 = 2.833 | 909.38 ± 1.8
398.15 K, 49925 kPa, m1 = 1.462 | 843.34 ± 1.7
398.15 K, 49926 kPa, m1 = 3.368 | 942.62 ± 1.9
398.15 K, 49931 kPa, m1 = 0.2335 | 764.05 ± 1.6
398.15 K, 49993 kPa, m1 = 0.5972 | 789.19 ± 1.7
398.15 K, 50024 kPa, m1 = 0.9499 | 811.67 ± 1.7
398.15 K, 59926 kPa, m1 = 0.9499 | 820.12 ± 1.7
398.15 K, 59926 kPa, m1 = 2.833 | 925.07 ± 1.9
398.15 K, 69784 kPa, m1 = 0.9499 | 827.92 ± 1.8
398.15 K, 69953 kPa, m1 = 0.2335 | 781.36 ± 1.7
398.15 K, 69979 kPa, m1 = 0.5972 | 805.77 ± 1.7
398.15 K, 79787 kPa, m1 = 0.5972 | 813.07 ± 1.8
398.15 K, 79935 kPa, m1 = 0.9499 | 835.45 ± 1.8
398.15 K, 80002 kPa, m1 = 2.833 | 938.86 ± 1.9
398.15 K, 89921 kPa, m1 = 0.2335 | 795.82 ± 1.8
398.15 K, 89936 kPa, m1 = 0.9499 | 842.54 ± 1.8
398.15 K, 89963 kPa, m1 = 2.272 | 917.33 ± 1.9
398.15 K, 89994 kPa, m1 = 0.5972 | 820.32 ± 1.8
398.15 K, 99021 kPa, m1 = 0.9499 | 848.81 ± 1.9
398.15 K, 99624 kPa, m1 = 0.2335 | 802.67 ± 1.9
398.15 K, 99816 kPa, m1 = 1.462 | 879.34 ± 1.9
398.15 K, 99985 kPa, m1 = 2.833 | 951.65 ± 1.9
398.15 K, 100000 kPa, m1 = 3.368 | 976.03 ± 2
398.16 K, 5023 kPa, m1 = 3.368 | 900.37 ± 1.8
398.16 K, 19941 kPa, m1 = 0.5972 | 757.12 ± 1.5
398.16 K, 19974 kPa, m1 = 0.2335 | 731.71 ± 1.5
398.16 K, 29947 kPa, m1 = 2.833 | 900.32 ± 1.8
398.16 K, 60031 kPa, m1 = 1.462 | 851.51 ± 1.8
398.16 K, 60122 kPa, m1 = 3.368 | 950.15 ± 1.9
398.16 K, 69784 kPa, m1 = 2.833 | 932.03 ± 1.9
398.16 K, 69947 kPa, m1 = 1.462 | 859.16 ± 1.8
398.16 K, 69957 kPa, m1 = 3.368 | 956.94 ± 1.9
398.16 K, 79919 kPa, m1 = 3.368 | 963.47 ± 1.9
398.16 K, 80014 kPa, m1 = 0.2335 | 788.79 ± 1.8
398.16 K, 89928 kPa, m1 = 1.462 | 872.71 ± 1.8
398.16 K, 89993 kPa, m1 = 3.368 | 969.83 ± 2
398.17 K, 5071 kPa, m1 = 0.5972 | 736.75 ± 1.5
398.17 K, 9730 kPa, m1 = 0.5972 | 743.51 ± 1.5
398.17 K, 59907 kPa, m1 = 0.5972 | 797.77 ± 1.7
398.17 K, 59978 kPa, m1 = 0.2335 | 773.47 ± 1.7
398.18 K, 1833 kPa, m1 = 2.272 | 839.1 ± 1.7
398.18 K, 80059 kPa, m1 = 1.462 | 866.49 ± 1.8
398.19 K, 99619 kPa, m1 = 2.272 | 923.71 ± 1.9
398.22 K, 4702 kPa, m1 = 2.272 | 842.75 ± 1.7
